Test results published in patent US10112950B2, “Substituted imidazo[1,2-a]pyrazines as LSD1 inhibitors” (Incyte Corporation, priority 2014, dated 2018).

Target: LSD-1 enzyme (Homo sapiens (Human), UniProt O60341)
Assay: LANCE LSD1/KDM1A demethylase assay (LSD1 histone demethylase biochemical assay)
Conditions: 1 nM LSD-1 enzyme, 1 hour preincubation at 25° C., 0.4 μM Biotin-labeled Histone H3 peptide substrate
Method: LSD1 Histone Demethylase Biochemical Assay
LANCE LSD1/KDM1A demethylase assay-10 μL of 1 nM LSD-1 enzyme (ENZO BML-SE544-0050) in the assay buffer (50 mM Tris, pH 7.5, 0.01% Tween-20, 25 mM NaCl, 5 mM DTT) were preincubated for 1 hour at 25° C. with 0.8 μL compound/DMSO dotted in black 384 well polystyrene plates. […] Reactions were stopped by addition of 10 μL 1× LANCE Detection Buffer (PerkinElmer CR97-100) supplemented with 1.5 nM Eu-anti-unmodified H3K4 Antibody (PerkinElmer TRF0404), and 225 nM LANCE Ultra Streptavidin (PerkinElmer TRF102) along with 0.9 mM Tranylcypromine-HCl (Millipore 616431). After stopping the reactions plates were incubated for 30 minutes and read on a PHERAstar FS plate reader (BMG Labtech).

SMILES | IC50 [nM]
CN1CCC[C@@H](COc2nc(-c3ccc(C#N)cc3)c(-c3ccc(N(C)CC4CCCO4)nc3)n3ccnc23)C1 (stereo partly drawn) [Example 52, 4-(8-{[(3R)-1-methylpiperidin-3-yl]methoxy}-5-{6-[methyl(tetrahydrofuran-2-ylmethyl)amino]pyridin-3-yl}imidazo[1,2-a]pyrazin-6-yl)benzonitrile] | ≤ 50
CN1CCC[C@@H](COc2nc(-c3ccc(C#N)cc3)c(-c3cnc4c(ccn4C)c3)n3ccnc23)C1 [Example 53, 4-[8-{[(3R)-1-methylpiperidin-3-yl]methoxy}-5-(1-methyl-1H-pyrrolo[2,3-b]pyridin-5-yl)imidazo[1,2-a]pyrazin-6-yl]benzonitrile] | ≤ 50
CN(C)C1CCN(c2nc(-c3ccc(C#N)cc3)c(-c3ccc(N4CCCC4=O)nc3)n3ccnc23)CC1 [Example 57, 4-{8-[4-(dimethylamino)piperidin-1-yl]-5-[6-(2-oxopyrrolidin-1-yl)pyridin-3-yl]imidazo[1,2-a]pyrazin-6-yl}benzonitrile] | ≤ 50
CN(C)C1CCN(c2nc(-c3ccc(C#N)cc3)c(-c3cnc4c(cnn4C)c3)n3ccnc23)CC1 [Example 58, 4-[8-[4-(dimethylamino)piperidin-1-yl]-5-(1-methyl-1H-pyrazolo[3,4-b]pyridin-5-yl)imidazo[1,2-a]pyrazin-6-yl]benzonitrile] | ≤ 50
CN(C)C1CCN(c2nc(-c3ccc(C#N)cc3)c(-c3ccc4c(c3)oc(=O)n4C)n3ccnc23)CC1 [Example 59, 4-[8-[4-(dimethylamino)piperidin-1-yl]-5-(3-methyl-2-oxo-2,3-dihydro-1,3-benzoxazol-6-yl)imidazo[1,2-a]pyrazin-6-yl]benzonitrile] | ≤ 50
CN1C(=O)COc2cc(-c3c(-c4ccc(C#N)cc4)nc(N4CCC(N(C)C)CC4)c4nccn34)ccc21 [Example 60, 4-[8-[4-(dimethylamino)piperidin-1-yl]-5-(4-methyl-3-oxo-3,4-dihydro-2H-1,4-benzoxazin-7-yl)imidazo[1,2-a]pyrazin-6-yl]benzonitrile] | ≤ 50
CN(C)C1CCN(c2nc(-c3ccc(C#N)cc3)c(-c3cc4oc(=O)n(C)c4cc3F)n3ccnc23)CC1 [Example 62, 4-[8-[4-(dimethylamino)piperidin-1-yl]-5-(5-fluoro-3-methyl-2-oxo-2,3-dihydro-1,3-benzoxazol-6-yl)imidazo[1,2-a]pyrazin-6-yl]benzonitrile] | ≤ 50
Cn1ncc2cc(-c3c(-c4ccc(C#N)cc4)nc(OC[C@@H]4CCCN(CCO)C4)c4nccn34)ccc21 [Example 65, 4-[8-{[(3R)-1-(2-hydroxyethyl)piperidin-3-yl]methoxy}-5-(1-methyl-1H-indazol-5-yl)imidazo[1,2-a]pyrazin-6-yl]benzonitrile] | ≤ 50
CN(C)C1CCN(c2nc(-c3ccc(C#N)cc3)c(-c3cnc4c(c3)oc(=O)n4C)n3ccnc23)CC1 [Example 66, 4-[8-[4-(dimethylamino)piperidin-1-yl]-5-(3-methyl-2-oxo-2,3-dihydro[1,3]oxazolo[4,5-b]pyridin-6-yl)imidazo[1,2-a]pyrazin-6-yl]benzonitrile] | ≤ 50
CN(C)C1CCN(c2nc(-c3ccc(C#N)cc3)c(-c3ccc(N4CCOC4=O)nc3)n3ccnc23)CC1 [Example 67, 4-{8-[4-(dimethylamino)piperidin-1-yl]-5-[6-(2-oxo-1,3-oxazolidin-3-yl)pyridin-3-yl]imidazo[1,2-a]pyrazin-6-yl}benzonitrile] | ≤ 50
CN(C)C1CCN(c2nc(-c3ccc(C#N)cc3)c(-c3ccc4c(c3)c(N)nn4C)n3ccnc23)CC1 [Example 68, 4-{5-(3-amino-1-methyl-1H-indazol-5-yl)-8-[4-(dimethylamino)piperidin-1-yl]imidazo[1,2-a]pyrazin-6-yl}benzonitrile] | ≤ 50
Cc1ccc(-c2c(-c3ccc(C#N)cc3)nc(OC[C@@H]3CCCN(C)C3)c3nccn23)cc1C#N [Example 69, 5-(6-(4-cyanophenyl)-8-{[(3R)-1-methylpiperidin-3-yl]methoxy}imidazo[1,2-a]pyrazin-5-yl)-2-methylbenzonitrile] | ≤ 50
Cc1ccc(-c2c(-c3ccc(C#N)cc3)nc(OC[C@@H]3CCCN(C)C3)c3nccn23)cc1CO [Example 70, 4-(5-[3-(hydroxymethyl)-4-methylphenyl]-8-{[(3R)-1-methylpiperidin-3-yl]methoxy}imidazo[1,2-a]pyrazin-6-yl)benzonitrile] | ≤ 50
Cc1cc(-c2c(-c3ccc(C#N)cc3)nc(OC[C@@H]3CCCN(C)C3)c3nccn23)ccc1CO [Example 72, 4-(5-[4-(hydroxymethyl)-3-methylphenyl]-8-{[(3R)-1-methylpiperidin-3-yl]methoxy}imidazo[1,2-a]pyrazin-6-yl)benzonitrile] | ≤ 50
CN1CCC[C@@H](COc2nc(-c3ccc(C#N)cc3)c(-c3ccc4c(c3)C(O)CC4)n3ccnc23)C1 (stereo partly drawn) [Example 73, 4-(5-(3-hydroxy-2,3-dihydro-1H-1-inden-5-yl)-8-{[(3R)-1-methylpiperidin-3-yl]methoxy}imidazo[1,2-a]pyrazin-6-yl)benzonitrile] | ≤ 50
CN1CCC[C@@H](COc2nc(-c3ccc(C#N)cc3)c(-c3cc(F)c4c(c3)C(O)CC4)n3ccnc23)C1 (stereo partly drawn) [Example 79, 4-(5-(7-fluoro-3-hydroxy-2,3-dihydro-1H-inden-5-yl)-8-{[(3R)-1-methylpiperidin-3-yl]methoxy}imidazo[1,2-a]pyrazin-6-yl)benzonitrile] | ≤ 50
CN1CCC[C@@H](COc2nc(-c3ccc(C#N)cc3)c(-c3ccc4c(c3)CCC4O)n3ccnc23)C1 (stereo partly drawn) [Example 80, 4-(5-(1-hydroxy-2,3-dihydro-1H-inden-5-yl)-8-{[(3R)-1-methylpiperidin-3-yl]methoxy}imidazo[1,2-a]pyrazin-6-yl)benzonitrile] | ≤ 50
Cc1cc(-c2c(-c3ccc(C#N)cc3)nc(OC[C@@H]3CCCN(C)C3)c3nccn23)cc(F)c1CO [Example 81, 4-(5-[3-fluoro-4-(hydroxymethyl)-5-methylphenyl]-8-{[(3R)-1-methylpiperidin-3-yl]methoxy}imidazo[1,2-a]pyrazin-6-yl)benzonitrile] | ≤ 50
COC(=O)N(C)Cc1ccc(-c2c(-c3ccc(C#N)cc3)nc(OC[C@@H]3CCCN(C)C3)c3nccn23)cc1F [Example 85, methyl [4-(6-(4-cyanophenyl)-8-{[(3R)-1-methylpiperidin-3-yl]methoxy}imidazo[1,2-a]pyrazin-5-yl)-2-fluorobenzyl]methylcarbamate] | ≤ 50
Cc1ccc(-c2c(-c3ccc(C#N)cc3)nc(OC[C@@H]3CCCN(C)C3)c3nccn23)cc1C(C)O (stereo partly drawn) [Example 87, 4-(5-[3-(1-hydroxyethyl)-4-methylphenyl]-8-{[(3R)-1-methylpiperidin-3-yl]methoxy}imidazo[1,2-a]pyrazin-6-yl)benzonitrile] | ≤ 50
CN1CCC[C@@H](COc2nc(-c3ccc(C#N)cc3)c(-c3cc(F)c4c(c3)CCC4O)n3ccnc23)C1 (stereo partly drawn) [Example 88, 4-(5-(7-fluoro-1-hydroxy-2,3-dihydro-1H-inden-5-yl)-8-{[(3R)-1-methylpiperidin-3-yl]methoxy}imidazo[1,2-a]pyrazin-6-yl)benzonitrile] | ≤ 50
Cc1ccc(-c2c(-c3ccc(C#N)cc3)nc(OC[C@@H]3CCCN(C)C3)c3nccn23)c(CO)c1 [Example 90, 4-(5-[2-(hydroxymethyl)-4-methylphenyl]-8-{[(3R)-1-methylpiperidin-3-yl]methoxy}imidazo[1,2-a]pyrazin-6-yl)benzonitrile] | ≤ 50
Cc1ccc(-c2c(-c3ccc(C#N)cc3)nc(OC[C@@H]3CCCN(C)C3)c3nccn23)cc1CC#N [Example 91, 4-(5-[3-(cyanomethyl)-4-methylphenyl]-8-{[(3R)-1-methylpiperidin-3-yl]methoxy}imidazo[1,2-a]pyrazin-6-yl)benzonitrile] | ≤ 50
Cc1cc(-c2c(-c3ccc(C#N)cc3)nc(N3CCC(N(C)C)CC3)c3nccn23)cnc1C [Example 92, 4-[8-[4-(dimethylamino)piperidin-1-yl]-5-(5,6-dimethylpyridin-3-yl)imidazo[1,2-a]pyrazin-6-yl]benzonitrile] | ≤ 50
Cc1ncc(-c2c(-c3ccc(C#N)cc3)nc(N3CCC(N(C)C)CC3)c3nccn23)cc1O [Example 94, 4-[8-[4-(dimethylamino)piperidin-1-yl]-5-(5-hydroxy-6-methylpyridin-3-yl)imidazo[1,2-a]pyrazin-6-yl]benzonitrile] | ≤ 50
Cc1ccc(-c2c(-c3ccc(C#N)cc3)nc(N3CCC(N(C)C)CC3)c3nccn23)cc1CO [Example 96, 4-{8-[4-(dimethylamino)piperidin-1-yl]-5-[3-(hydroxymethyl)-4-methylphenyl]imidazo[1,2-a]pyrazin-6-yl}benzonitrile] | ≤ 50
Cc1cc(-c2c(-c3ccc(C#N)cc3)nc(N3CCC(N(C)C)CC3)c3nccn23)cc(F)c1CO [Example 97, 4-{8-[4-(dimethylamino)piperidin-1-yl]-5-[3-fluoro-4-(hydroxymethyl)-5-methylphenyl]imidazo[1,2-a]pyrazin-6-yl}benzonitrile] | ≤ 50
CN1C(=O)Cc2cc(-c3c(-c4ccc(C#N)cc4)nc(N4CCC(N(C)C)CC4)c4nccn34)ccc21 [Example 98, 4-[8-[4-(dimethylamino)piperidin-1-yl]-5-(1-methyl-2-oxo-2,3-dihydro-1H-indol-5-yl)imidazo[1,2-a]pyrazin-6-yl]benzonitrile] | ≤ 50
CN(C)C1CCCN(c2nc(-c3ccc(C#N)cc3)c(-c3ccc(N4CCCC4=O)nc3)n3ccnc23)C1 (centres unmarked) [Example 99, 4-{8-[3-(dimethylamino)piperidin-1-yl]-5-[6-(2-oxopyrrolidin-1-yl)pyridin-3-yl]imidazo[1,2-a]pyrazin-6-yl}benzonitrile] | ≤ 50
